Test results as given in publication PMC6761512, “Trypanosoma cruzi Phosphomannomutase and Guanosine Diphosphate-Mannose Pyrophosphorylase Ligandability Assessment” (Antimicrobial Agents and Chemotherapy, 2019).

Columns and labels:
T. cruzi GDP-MP enzyme = assay: Km determination with the GDP-MP assay; format: biochemical
Procedure: (§1) All enzyme and substrate solution dilutions were prepared in assay buffer comprising 25 mM Tris-HCl (pH 7.5), 150 mM NaCl, 4 mM MgCl2, 0.01% (vol/vol) Tween 20, and 1 mM dithiothreitol in ultrapure water. Biochemical assays were performed in a 50-μl final assay volume using clear 384-well assay microplates (Greiner, catalog no. 781101) at room temperature. Unless stated otherwise, all reagent concentrations are written as final biochemical assay concentrations, and DMSO or compounds were added to assay plates using Echo acoustic dispensers (Labcyte). Reagent addition for high-throughput screening assays was performed using an Xrd-384 liquid dispenser (FluidX, UK) and a BioFill Solo/Xrd-384 16 channel resin nozzle (2.00 to 200 μl) tubing cartridge (FluidX, catalog no. 34-1005-S). Biochemical reactions were terminated by addition of 50 μl of BIOMOL Green (Enzo Life Sciences, catalog no. BML-AK111-1000) reagent, after which absorbance was measured following a 30-min incubation at room temperature. Absorbance measurements were performed at 650 nm using a PHERAStar microplate reader (BMG Labtech, Germany), and the data are represented as relative absorbance units (RAU). Linear and nonlinear regression was performed using the SigmaPlot 12.5 software, unless stated otherwise.
To calculate the Michaelis constant (Km) for the M-1-P substrate, 20-min time course reactions using a fixed concentration of GDP-MP enzyme (3.13 nM), a saturating concentration of GTP substrate (600 μM) mixed with inorganic pyrophosphatase (1 U/ml; Merck, catalogue no. I5907-1MG), and various concentrations of M-1-P substrate (150, 75, 37.5, 18.8, 9.38, 4.69, and 2.34 μM) were performed. The Km for the GTP substrate was acquired in a similar manner using a saturating concentration of M-1-P (150 μM) and various concentrations of GTP substrate (300, 150, 75, 37.5, 18.8, 9.38, and 4.69 μM). In both cases, background control samples were also included that lacked the presence of GDP-MP enzyme. At the end of the time courses, the biochemical reactions were terminated, and absorbance measurements were taken. […]

[1] = target: T1, T. cruzi PMM and GDP-MP enzymes (Trypanosoma cruzi, UniProt Q4CMK4); assay: standard configuration PMM-GDP-MP biochemical assay; details: for pIC50: library stock material, mean n=2; for pIC50 ± SD: repurchased material, n=3
Procedure: as §1
Single-point diversity screening was performed using the standard configuration PMM-GDP-MP biochemical assay and microplates containing compounds in columns 1 to 22 from two diverse small-molecule compound sets covering traditional small-molecule chemical space (DDD, 9,257 compounds; molecular weights between 185.2 and 492.2) and more three-dimensional chemical space (GHCDL, 8,860 compounds; molecular weights between 190.24 and 449.3) at a final concentration of 10 μM (final DMSO concentration = 0.1% [vol/vol]) or a small polar set (16,845 primarily fragment-sized compounds with increased polarity; molecular weights between 88.1 and 476.0) at a final concentration of 300 μM (final DMSO concentration = 0.3% [vol/vol]). Columns 23 and 24 both contained DMSO (either 0.1 or 0.3% [vol/vol] at final assay concentration) and were utilized as “maximum effect” and “minimum effect” control populations, respectively. For screening purposes, 25 μl of a solution containing PMM and GDP-MP enzymes (6.25 and 3.13 nM, respectively) was added to columns 1 to 23, and 25 μl of buffer only was added to column 24. This was followed by the addition of 25 μl of a mixture containing inorganic pyrophosphatase (1 U/ml) and substrates/cofactors (150 μM GTP, 45 μM M-6-P, and 6 μM G-1,6,-BP). The assay plates were incubated at room temperature for 90 min. At the end of the incubation period, the biochemical reactions were terminated, and absorbance measurements were taken. Robust Z′ values were calculated for each assay microplate using the following equation: Robust Z’=1 –((3 ×(1.483 ×(RAU MAD Max)))+(3 ×(1.483 ×(RAU MAD Min))))/(median RAU Max− median RAU Min) where MAD is the median absolute deviation, Max are the maximum effect control samples, and Min are the minimum effect control samples.
RAU values were normalized to percent inhibition values relative to the maximum and minimum effect control populations, and compounds displaying percent inhibition values of ≥30% were selected as hits. Data were processed using IDBS ActivityBase 8.1.2.12 and Dotmatics Limited Vortex v2017.08.69598-59-s software.
Concentration-response assessment of hits using the PMM-GDP-MP assays was performed by adding 25 μl of a solution of PMM and GDP-MP enzymes (6.25 and 3.13 nM, respectively) to columns 1 to 11 and 13 to 23 of microplates containing various concentrations of compounds (10 final assay concentrations ranging from […] at 1 in 3 dilution increments in the presence of 1% [vol/vol] DMSO). Buffer only (25 μl) was added to columns 12 and 24. […]

T. cruzi GDP-MP [2] = target: T2, T. cruzi GDP-MP (Trypanosoma cruzi, UniProt Q4CMK4); assay: standard configuration GDP-MP biochemical assay
Procedure: as §1
Concentration-response assessment of hits using the PMM-GDP-MP assays was performed by adding 25 μl of a solution of PMM and GDP-MP enzymes (6.25 and 3.13 nM, respectively) to columns 1 to 11 and 13 to 23 of microplates containing various concentrations of compounds (10 final assay concentrations ranging from […] at 1 in 3 dilution increments in the presence of 1% [vol/vol] DMSO). Buffer only (25 μl) was added to columns 12 and 24. Columns 11 and 23 were utilized as “maximum effect” control populations (1% [vol/vol] DMSO with enzyme), and columns 12 and 24 were “minimum effect” control populations (1% [vol/vol] DMSO in the absence of enzyme). This was followed by the addition of 25 μl of a mixture containing inorganic pyrophosphatase (1 U/ml) and substrates/cofactors (150 μM GTP, 45 μM M-6-P, and 6 μM G-1,6-BP for the standard configuration assay and 150 μM GTP, 225 μM M-6-P, and 30 μM G-1,6-BP for the high-substrate configuration assay) to the entire assay plate. The standard configuration assay plates were incubated at room temperature for 90 min, and the high-substrate configuration assay plates were incubated for 80 min. Standard and high-substrate configuration GDP-MP assay compound concentration-response assessments were performed as described above by incubating GDP-MP enzyme (3.13 or 0.78 nM) in the presence of GTP (30 or 300 μM), M-1-P (15 or 150 μM), and inorganic pyrophosphatase (1 U/ml) for 50 min at room temperature. Pyrophosphatase counterscreen concentration-response assessments were performed by preincubating compounds with inorganic pyrophosphatase (1 U/ml) for 90 min at room temperature, followed by the addition of inorganic pyrophosphate (10 μM) and a secondary 5-min incubation at room temperature. At the end of the incubation periods, the biochemical reactions were terminated and absorbance measurements were taken. RAU values were normalized to % inhibition values relative to the maximum and minimum effect control populations. pIC50 values, defined as –log[IC50(M)], were calculated by fitting concentration-response data for each independent replicate separately to a four-parameter logistic model, as shown below, using either the IDBS ActivityBase 8.1.2.12 or SigmaPlot 12.5 software. Where appropriate, the top curve plateau parameter was constrained to a value of 100.
The four-parameter logistic model was as follows, where Min is the minimum asymptote and Max is the maximum asymptote: y=Min+Max – Min/1+(10^−logIC50/x)^Hill slope

T. cruzi GDP-MP [3] = target: T2, T. cruzi GDP-MP; assay: high-substrate configuration GDP-MP biochemical assay; details: for IC50: GDP-MP, high-substrate configuration, repurchased material, n=3; for mode of inhibition of GDP-MP: from comparison of standard and high-substrate (10-fold) configuration GDP-MP assays
Procedure: as §1
Concentration-response assessment of hits using the PMM-GDP-MP assays was performed by adding 25 μl of a solution of PMM and GDP-MP enzymes (6.25 and 3.13 nM, respectively) to columns 1 to 11 and 13 to 23 of microplates containing various concentrations of compounds (10 final assay concentrations ranging from 990 to 1.92 μM at 1 in 3 dilution increments in the presence of 1% [vol/vol] DMSO). Buffer only (25 μl) was added to columns 12 and 24. Columns 11 and 23 were utilized as “maximum effect” control populations (1% [vol/vol] DMSO with enzyme), and columns 12 and 24 were “minimum effect” control populations (1% [vol/vol] DMSO in the absence of enzyme). This was followed by the addition of 25 μl of a mixture containing inorganic pyrophosphatase (1 U/ml) and substrates/cofactors (150 μM GTP, 45 μM M-6-P, and 6 μM G-1,6-BP for the standard configuration assay and 150 μM GTP, 225 μM M-6-P, and 30 μM G-1,6-BP for the high-substrate configuration assay) to the entire assay plate. […] At the end of the incubation periods, the biochemical reactions were terminated and absorbance measurements were taken. RAU values were normalized to % inhibition values relative to the maximum and minimum effect control populations. pIC50 values, defined as –log[IC50(M)], were calculated by fitting concentration-response data for each independent replicate separately to a four-parameter logistic model, as shown below, using either the IDBS ActivityBase 8.1.2.12 or SigmaPlot 12.5 software. […]

[4] = target: T1, T. cruzi PMM and GDP-MP enzymes; assay: high-substrate configuration PMM-GDP-MP biochemical assay; details: repurchased material, n=3
Procedure: as §1, with “otherwise. […]” for “otherwise.”

[5] = library stock material, n=1, read-out: pIC50 (converted)
[6] = repurchased material, n=3, read-out: pIC50 ± SD (converted)

T2 sequence (Q4CMK4 entry or part of it): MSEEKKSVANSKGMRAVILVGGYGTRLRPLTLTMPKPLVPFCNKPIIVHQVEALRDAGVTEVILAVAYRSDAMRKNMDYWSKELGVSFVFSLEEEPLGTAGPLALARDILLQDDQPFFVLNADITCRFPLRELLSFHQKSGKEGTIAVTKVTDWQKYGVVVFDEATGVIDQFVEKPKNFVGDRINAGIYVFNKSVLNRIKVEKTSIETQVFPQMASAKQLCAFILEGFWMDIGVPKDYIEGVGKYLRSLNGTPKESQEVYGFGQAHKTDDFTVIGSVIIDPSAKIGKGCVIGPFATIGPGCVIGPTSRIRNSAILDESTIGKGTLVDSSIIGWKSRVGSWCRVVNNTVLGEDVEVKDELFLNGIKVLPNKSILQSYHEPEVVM
T1 sequence (Q4CMK4 entry or part of it): as above
T1 sequence (Q4E4A3 entry or part of it, further chain): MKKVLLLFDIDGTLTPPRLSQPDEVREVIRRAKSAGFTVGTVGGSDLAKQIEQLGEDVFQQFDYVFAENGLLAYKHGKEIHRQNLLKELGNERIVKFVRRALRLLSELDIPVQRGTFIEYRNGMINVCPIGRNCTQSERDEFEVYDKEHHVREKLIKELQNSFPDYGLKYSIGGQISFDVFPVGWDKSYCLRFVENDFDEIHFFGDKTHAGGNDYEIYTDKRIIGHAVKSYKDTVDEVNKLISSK

| pIC50 [1] | IC50 (T. cruzi GDP-MP [2]; [5]) | pIC50 ± SD [1] | IC50 (T. cruzi GDP-MP [3]) | mode of inhibition of GDP-MP (T. cruzi GDP-MP [3]) | IC50 (T. cruzi GDP-MP [2]; [6]) | pIC50 ± SD [4] | Compound | GTP Km of T. cruzi GDP-MP, fold higher than reported for L. donovani (T. cruzi GDP-MP enzyme; vs L. donovani GDP-MP) | GTP Km of T. cruzi GDP-MP, fold higher than reported for L. major (T. cruzi GDP-MP enzyme; vs L. major GDP-MP) | GTP Km of T. cruzi GDP-MP, fold higher than reported for L. mexicana (T. cruzi GDP-MP enzyme; vs L. mexicana GDP-MP) |
| --- | --- | --- | --- | --- | --- | --- | --- | --- | --- | --- |
| 4.9 (2) | 25.1 µM |  |  |  |  |  | CC(C)C(C(=O)O)N1C(=O)C=CC1=O (stereo not drawn) [compound 1] |  |  |  |
| 4.0 (2) | 158 µM |  |  |  |  |  | N[C@H]1CCN(CCCOc2ccc(C(=O)O)cc2)C1 [compound 4] |  |  |  |

Second part, the compound before the results:

| Compound | pIC50 [1] | IC50 (T. cruzi GDP-MP [2]; [5]) | pIC50 ± SD [1] | IC50 (T. cruzi GDP-MP [3]) | mode of inhibition of GDP-MP (T. cruzi GDP-MP [3]) | IC50 (T. cruzi GDP-MP [2]; [6]) | pIC50 ± SD [4] | GTP Km of T. cruzi GDP-MP, fold higher than reported for L. donovani (T. cruzi GDP-MP enzyme; vs L. donovani GDP-MP) | GTP Km of T. cruzi GDP-MP, fold higher than reported for L. major (T. cruzi GDP-MP enzyme; vs L. major GDP-MP) | GTP Km of T. cruzi GDP-MP, fold higher than reported for L. mexicana (T. cruzi GDP-MP enzyme; vs L. mexicana GDP-MP) |
| --- | --- | --- | --- | --- | --- | --- | --- | --- | --- | --- |
| Nc1nc2c(ncn2[C@@H]2O[C@H](COP(=O)(O)OP(=O)(O)OP(=O)(O)O)[C@@H](O)[C@H]2O)c(=O)[nH]1 [GTP] |  |  |  |  |  |  |  | 2.4 fold | 27 fold | 5.3 fold |
| c1ccn2c(CNCCCN3CCC3)cnc2c1 [compound 2] | 3.6 (2) | > 1000 µM | 3.1 ± 0.2 (3) | 794 µM | uncompetitive inhibition | > 1000 µM | 3.2 ± 0.2 (3) |  |  |  |
| CC(=O)OCc1cc(-c2csc(N)n2)ccc1O [compound 3] | 3.5 (2) | 158 µM | 3.9 ± 0.2 (3) | 316 µM | competitive inhibition | 126 µM | 3.6 ± 0.1 (3) |  |  |  |
